Where two headings read alike, the source gives them in different places.
Legend:
BRD4 [1] = molecular target: T1, BRD4 (Homo sapiens, UniProt O60885); assay: BRD4 IC50, first listed in Table 2; type: binding; settings: first BRD4 value listed in the cell
NOMO1 = assay: Cell line IC50, NOMO1; type: cell-based
BRD4 [2] = molecular target: T1, BRD4; assay: BRD4 IC50, second listed in Table 2; type: binding
MOLM-13 = assay: Cell line IC50, MOLM-13; type: cell-based; settings: MOLM-13 cell line
PLK1 = PLK1 (Homo sapiens, UniProt P53350); assay: PLK1 kinase IC50, Table 2; type: biochemical
Chain of PLK1 (P53350 whole entry): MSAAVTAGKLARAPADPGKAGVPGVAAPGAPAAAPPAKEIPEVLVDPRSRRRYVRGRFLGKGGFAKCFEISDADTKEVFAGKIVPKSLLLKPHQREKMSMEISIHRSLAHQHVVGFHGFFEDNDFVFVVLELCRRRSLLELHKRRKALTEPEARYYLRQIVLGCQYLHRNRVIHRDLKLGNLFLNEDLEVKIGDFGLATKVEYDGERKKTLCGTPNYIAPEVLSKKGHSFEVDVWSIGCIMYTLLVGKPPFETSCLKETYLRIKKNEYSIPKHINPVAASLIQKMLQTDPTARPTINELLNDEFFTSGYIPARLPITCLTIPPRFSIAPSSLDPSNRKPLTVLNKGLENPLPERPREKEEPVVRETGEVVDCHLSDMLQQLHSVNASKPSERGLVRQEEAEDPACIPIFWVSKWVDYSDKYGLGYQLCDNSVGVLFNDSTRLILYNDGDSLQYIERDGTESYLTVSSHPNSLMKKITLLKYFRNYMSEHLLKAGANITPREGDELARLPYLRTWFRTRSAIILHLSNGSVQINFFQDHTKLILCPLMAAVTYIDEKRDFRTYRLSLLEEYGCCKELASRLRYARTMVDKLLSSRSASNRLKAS

AURKA = molecular target: T2, AURKA (Homo sapiens, UniProt O14965); assay: AURKA kinase IC50, Table 2; type: biochemical
T2 sequence (O14965 1-403): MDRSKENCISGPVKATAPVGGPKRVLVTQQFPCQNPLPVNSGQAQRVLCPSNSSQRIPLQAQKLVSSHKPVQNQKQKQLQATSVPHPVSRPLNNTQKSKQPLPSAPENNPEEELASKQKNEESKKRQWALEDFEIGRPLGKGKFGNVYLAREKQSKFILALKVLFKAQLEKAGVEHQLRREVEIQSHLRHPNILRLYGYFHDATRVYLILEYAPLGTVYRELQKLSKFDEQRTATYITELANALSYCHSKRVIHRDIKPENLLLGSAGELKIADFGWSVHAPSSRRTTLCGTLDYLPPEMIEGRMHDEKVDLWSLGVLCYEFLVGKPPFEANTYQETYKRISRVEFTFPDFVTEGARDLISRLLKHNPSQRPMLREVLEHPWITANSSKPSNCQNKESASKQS

MV411 = assay: Cell line IC50, MV411; type: cell-based
797 = assay: Cellular assay, cell viability by ATPlite, 797 cells; type: cell-based; settings: for IC50: read-out: 797 IC50
BRDT = BRDT (Homo sapiens, UniProt Q58F21); assay: BRDT IC50, Table 2; type: binding
Kasumi-1 = assay: Cell line IC50, Kasumi-1; type: cell-based; settings: Kasumi-1 cell line
TF-1 = assay: Cell line IC50, TF-1; type: cell-based; settings: TF-1 cell line
HL60 = assay: cells; settings: Homo sapiens, HL-60, read-out: HL60 (EC50, M)
BRD4.1 [3] = molecular target: T3, BRD4.1 (Homo sapiens, UniProt O60885); settings: read-out: ITC (Kd); BRD4.1, ITC at 25 C
BRD4.1 [4] = molecular target: T3, BRD4.1; settings: read-out: BRD4.1 (IC50)
[5] = Homo sapiens, NOMO1 (NOMO-1) cell line
[6] = second BRD4 value listed in the cell, read-out: BRD4 IC50
[7] = Homo sapiens, NOMO-1, NOMO1 cell line

SMILES	IC50 (BRD4 [1])	IC50 (NOMO1; [5])	IC50 (MOLM-13; Homo sapiens)	IC50 (PLK1)	IC50 (MV411; Homo sapiens, MV4-11)	IC50 (BRDT)	IC50 (Kasumi-1; Homo sapiens)	IC50 (TF-1; Homo sapiens)	IC50 (BRD4 [2]; [6])	IC50 (797; 797 cell line, Table 2)	further results
CC[C@@H]1C(=O)N(C)c2cnc(Nc3ccc(C(=O)NC4CCN(C)CC4)cc3)nc2N1C1CCCC1	147 nM	29 nM	8.5 nM	4.1 nM	10 nM	688 nM	–	–	–	–	IC50 (BRD4 [2]): 231 nM; IC50 (AURKA): 9360 nM; IC50 797: 6 nM
CC[C@@H]1C(=O)N(C)c2cnc(Nc3ccc(C(=O)NC4CCN(C)CC4)cc3OC)nc2N1C1CCCC1 [drawing 214]	–	11.9 nM	8.1 nM	–	5.4 nM	–	9.9 nM	772 nM	–	–	IC50 797: 5 nM
COc1cc(C(=O)NC2CCN(C)CC2)ccc1Nc1ncc2c(n1)N(C1CCCC1)[C@H](CC(C)C)C(=O)N2C	13500 nM	775 nM	461 nM	78 nM	550 nM	24500 nM	–	–	18800 nM	292 nM	–
CC[C@@H]1C(=O)N(C)c2cnc(Nc3ccc(C(=O)NC4CCN(C)CC4)cc3OC)nc2N1C1CCCC1 [drawing 199]	–	–	–	–	–	–	–	–	–	–	EC50 (HL60): 3.65e-08 M; EC50 (797; read-out: 797 (EC50, M)): 1.07e-08 M
C[C@@H]1C(=O)N(C)c2ccc(N3CCc4cc(C(=O)NC5CCN(C)CC5)ccc43)nc2N1C1CCCC1	160 nM	728 nM	333 nM	> 10000 nM	135 nM	469 nM	–	–	78 nM	227 nM	–
CC[C@@H]1C(=O)N(C)c2cnc(N3CCOc4cc(C(=O)NC5CCN(C)CC5)ccc43)nc2N1C1CCCC1	1620 nM	5420 nM	3490 nM	1700 nM	976 nM	5370 nM	–	–	832 nM	1940 nM	–
CC[C@@H]1C(=O)N(C)c2cnc(Nc3ccc(C(=O)N[C@H]4CC[C@H](N5CCN(CC6CC6)CC5)CC4)cc3OC)nc2N1C(C)C	–	–	–	–	–	–	–	–	–	–	Kd (BRD4.1 [3]): 255 nM; IC50 (BRD4.1 [4]): 1070 nM
C[C@@H](Oc1cc(-n2cnc3ccc(CN4CCN(C)CC4)cc32)sc1C(N)=O)c1ccccc1C(F)(F)F [reference compound]	> 50000 nM	–	–	–	7.1 nM	> 50000 nM	7.8 nM	–	–	8 nM	TF-1 IC50 (TF-1; result in words): poor convergence
Cc1sc2c(c1C)C(c1ccc(Cl)cc1)=N[C@@H](CC(=O)OC(C)(C)C)c1nnc(C)n1-2 [JQ1, reference compound]	–	–	–	–	–	–	–	–	–	92 nM	IC50 (NOMO1; NOMO1 (NOMO-1) cell line): 172 nM; IC50 (Kasumi-1): 48.8 nM; IC50 (MOLM-13): 89.2 nM; IC50 (MV411): 65.6 nM; IC50 (TF-1): 109 nM
COc1cc(C(=O)NC2CCN(C)CC2)ccc1Nc1ccc2c(n1)N(C1CCCC1)[C@H](C)C(=O)N2C	92 nM	529 nM	218 nM	> 10000 nM	21 nM	249 nM	–	–	100 nM	181 nM	–
CC[C@@H]1C(=O)N(C)c2cnc(N(C)c3ccc(C(=O)NC4CCN(C)CC4)cc3OC)nc2N1C1CCCC1	130 nM	771 nM	351 nM	725 nM	200 nM	365 nM	339 nM	1580 nM	247 nM	342 nM	–
CC[C@@H]1C(=O)N(C)c2ccc(Nc3ccc(C(=O)NC4CCN(C)CC4)cc3OC)nc2N1C1CCCC1	263 nM	1830 nM	851 nM	1870 nM	404 nM	859 nM	–	–	188 nM	701 nM	–
CC[C@@H]1C(=O)Nc2cnc(Nc3ccc(C(=O)NC4CCN(C)CC4)cc3OC)nc2N1C1CCCC1	9170 nM	–	341 nM	129 nM	302 nM	21100 nM	1470 nM	6700 nM	6300 nM	420 nM	IC50 (NOMO1; [7]): 3200 nM
CC[C@@H]1C(=O)N(C)c2cnc(Nc3ccc(C(=O)NC4CCN(C)CC4)cc3OC3CCCC3)nc2N1C1CCCC1	112 nM	114 nM	114 nM	19 nM	71.2 nM	491 nM	74.9 nM	302 nM	78 nM	95 nM	–
CC[C@@H]1C(=O)N(C)c2cnc(Nc3ccc(C(=O)NC4CCN(C)CC4)cc3OC3CCOCC3)nc2N1C1CCCC1	175 nM	–	–	57.6 nM	–	862 nM	–	–	228 nM	88 nM	IC50 (NOMO1; NOMO1 (NOMO-1) cell line): 491 nM; IC50 (Kasumi-1): 183 nM; IC50 (MOLM-13): 111 nM; IC50 (MV411): 74.6 nM; IC50 (TF-1): 1160 nM
CC[C@@H]1C(=O)N(CC)c2cnc(Nc3ccc(C(=O)NC4CCN(C)CC4)cc3OC)nc2N1C1CCCC1	339 nM	232 nM	174 nM	–	112 nM	1330 nM	239 nM	806 nM	546 nM	166 nM	–
CC[C@@H]1C(=O)N(C)c2ccc(N3CCc4cc(C(=O)NC5CCN(C)CC5)ccc43)nc2N1C1CCCC1	394 nM	1730 nM	828 nM	> 10000 nM	357 nM	1050 nM	–	–	172 nM	937 nM	–
CC[C@@H]1C(=O)N(C)c2cnc(N3CCc4cc(C(=O)NC5CCN(C)CC5)ccc43)nc2N1C1CCCC1	53 nM	247 nM	137 nM	20 nM	86 nM	213 nM	–	–	43 nM	64 nM	–
CC[C@@H]1C(=O)N(C)c2cnc(Oc3ccc(C(=O)NC4CCN(C)CC4)cc3OC)nc2N1C1CCCC1	415 nM	–	1590 nM	> 10000 nM	316 nM	1170 nM	1290 nM	5400 nM	720 nM	425 nM	IC50 (NOMO1; [7]): 7400 nM
